From patent US9943524B2, “Use of alkaloid in preparing pharmaceutical compositions for preventing or treating pulmonary fibrosis” (China Pharmaceutical University, priority 2014, dated 2018)

Tests used:
[1] = system: pulmonary fibrosis mice induced by bleomycin; assay: Determination of mice mortality (Embodiment 4); format: in vivo, C57BL/6 mice
Method: (§1) Female C57BL/6 mice (eight-week-old) are established for models after 7 days, the time is set for the mice to adapt to the environment. After fasts for overnight, the mice are anaesthetized by 3% chloral hydrate and fixed. Sterilize and incise neck skin longitudinally as little injury as possible. Split fascia and muscle with tweezers longitudinally and expose the windpipe. Then, about 35 μl (3.5 mg/kg) bleomycin are injected into windpipe with microinjector. Put the mice upright rapidly and rotate the mice for 3˜5 minutes, so that bleomycin is able to enter into the pulmones uniformly. Observe the breathing of mice. Sterilize neck injury with 75% alcohol tampon and stitch the wound, then 1 drop or 2 drops of benzylpenicillin injection is/are dripped into the suture. Put the mice back into dry and clean cages, and feed them normally after waking up. Operations are done on operating table at about […]. Physiological saline using in injection is injected into windpipe of sham operation group.
(§2) Model animals are divided into prevention groups and treatment groups, then drugs are given to the two groups respectively. According to internationally methods of drug administration, drugs are given continuously to the prevention groups by means of intragastric administration from the second day after successfully establishing model to the 14th day, and drugs are given continuously to treatment groups by means of intragastric administration from the 8th day after successfully establishing model to the 21th day. Groups and dosage regimen are shown in tab.1.
From the 0th day (the day when the model is established) to 14th day, drugs are given continuously to prevention groups. From the 8th day after successfully establishing model to 21th day, drugs are given continuously to treatment groups. Statistical analysis of death of animals in each group is carried on every day and the survival rate of animals in each group is calculated. Results are shown in tab.2.

[2] = system: pulmonary fibrosis mice induced by bleomycin; assay: Detection of the mice lung index (Embodiment 4); format: in vivo, C57BL/6 mice; settings: 30 and 60 mg/kg, prevention groups and treatment groups, versus model group (FIG. 2); lower dose better in prevention groups
Method: as §1, §2
After the last intragastric administration, the mice are killed to strip and weigh the lung, and the lung index is the lung weight divided by mouse weight (FIG. 2). […] In general, the 3 compounds have better effect in decreasing the mortality of mice than the positive drug pirfenidone.

cough reflex pathway = settings: in vivo; cited from earlier work
[3] = system: pulmonary fibrosis mice induced by bleomycin; assay: HE stained pathological evaluation and inflammation scores (Embodiment 4); format: in vivo, C57BL/6 mice; settings: for lung tissue inflammation scores (HE stained, grade 0-3): 30, 60 mg/kg, prevention and treatment groups (FIG. 4), lower dose better; for pulmonary inflammation and injury, HE stained pathological changes: prevention groups and treatment groups (FIG. 3), lower dose (30 mg/kg) better than higher dose
Method: as §1, §2
After the last intragastric administration, the mice are anaesthetized and killed to collect the lung tissue. Immerse the left lobule in 10% formalin, and embed it by paraffin after being fixed, then cut it into slices to observe the pathological changes by HE staining. As is shown in FIG. 3, structures of lobules of sham operation group are normal and the alveolar walls are complete without inflammation and fibrosis pathological changes. Obvious inflammation injury and masses of tissue begin to appear in lung of mice in model group, then the normal lung tissue disappears and alveolar is blocked. […] The groups with lower dose (30 mg/kg) of the 3 compounds show better effect than the groups with higher dose. The pulmonary inflammation disappears and alveolar structure is clear in groups with lower dose.
Inflammatory classification semi quantitative statistics analysis is made according to results of HE staining. Grade 0 represents normal tissue or minimal inflammation change. Grade 1 (+) represents mild to moderate inflammation change, and lung tissue without obvious damage. Grade 2 (++) represents moderate to severe inflammation injury, and alveolar septum is thickened to form masses of tissue, or lung tissue with damage caused by partial area inflammation. Grade 3 (+++) represents severe inflammation injury, and structure of restricted regions in lung tissue is severely damaged, thus resulting in obliteration. […] The groups with lower dose show better effect than the groups with higher dose. In general, the 3 compounds have better effect in decreasing the pulmonary inflammation than the positive drug pirfenidone.

[4] = system: pulmonary fibrosis mice induced by bleomycin; assay: Masson stained pathological evaluation and imaging analysis of collagen (Embodiment 4); format: in vivo, C57BL/6 mice; settings: for collagen deposition (Masson staining, integrated optical density): 30, 60 mg/kg, prevention and treatment groups (FIG. 5, 6), lower dose better in prevention, higher dose better in treatment
Method: as §1, §2
Masson staining is a method aiming at specific staining of fibrillar collagen. After the last intragastric administration, the mice are anaesthetized and killed to collect the lung tissue. Immerse the left lobule in 10% formalin, and embed it by paraffin after being fixed, then is cut it into slices to observe the collagen deposition by Masson staining. Semi quantitative analysis is made by using Image-Pro Plus6.0. Integrated optical density (IOD) of collagen in each visual field is measured after Masson staining. 5 samples are studied in each group and 5 visual fields are picked out from each group. Statistics analysis is made by calculating mean value which is considered as relative amount of collagen in each group.

TGF-β1 = assay: ELISA content determination of TGF-β1 in mice lung tissue (Embodiment 4); format: in vivo, C57BL/6 mice; settings: for content of TGF-β1 in lung tissue (ELISA): 30 mg/kg and 60 mg/kg, prevention groups and treatment groups, versus model group (FIG. 8), lower dose more effective; for effect on content of TGF-β1, comparison among compounds: ELISA, lung tissue
Method: as §1, §2
TGF-β1 is a universally recognized strong pro-fibrotic cytokine. It can stimulate the cells to synthesize and secrete extracellular matrix as well as exchange the activity of matrix-degrading enzyme component and directly increase the deposition of ECM. The progress of pulmonary fibrosis can be slowed down by decreasing the content of TGF-β1 in lung tissue. Elisa test kit (which is purchased from Shanghai Excell Biological Technology Co., Ltd.) according to specification is used in the determination of TGF-β1 in mice lung tissue. Results can be seen in FIG. 8.

[5] = system: pulmonary fibrosis mice induced by bleomycin; assay: Activity of 8 alkaloids and pentoxyverine against pulmonary fibrosis in mice (Embodiment 3); format: in vivo, C57BL/6 mice; settings: intragastric from first day after model to 21th day; for pulmonary inflammation, injury and fibrosis in HE and Masson stained pathological sections: alkaloids and pentoxyverine 30 mg/kg (FIG. 1B, 1C)
Method: as §1
Experimental mice are randomly divided into 12 groups: 10 mice in model group, 10 mice in pentoxyverine group, and 5 mice in any other group. Group 1 is sham operation group, group 2 is model group, group 3 is pentoxyverine group, group 4 is positive drug pirfenidone group, groups 5-12 are compounds I-VIII administration group respectively. Models of groups 2-12 are established by using bleomycin with the same method used in embodiment 2. From the first day after successfully establishing model, 30 mg/kg pentoxyverine and 300 mg/kg pirfenidone are given to group 3 and group 4 by means of intragastric administration respectively. 30 mg/kg compounds I-VIII are given to groups 5-12 also by means of intragastric administration respectively. Besides, same doses of solvent are given to sham operation group and model group until the 21th day. After the last intragastric administration, the mice are killed to collect the lung tissue, and the right lobule is used for determining the content of hydroxyproline, while the left lobule is used for preparing pathological sections.

[6] = system: pulmonary fibrosis mice induced by bleomycin; assay: Content determination of hydroxyproline in lung tissue (Embodiment 4); format: in vivo, C57BL/6 mice; settings: 30 mg/kg and 60 mg/kg, prevention groups and treatment groups (FIG. 7); lower dose slightly better
Method: as §1, §2
Hydroxyproline mainly exists in collagen protein, but there is only a very small amounts in elastin proteins and it cannot found in other proteins. Therefore the content of collagen protein can be indicated by measuring the content of hydroxyproline, so as to evaluate the degree of pulmonary fibrosis. Method of test kit (which is purchased from Nanjing Jiancheng Biological Technology Co., Ltd.) according to specification is used in determination of hydroxyproline. Results can be seen in FIG. 7.

[7] = system: cough of guinea pig induced by citric acid; settings: cited from earlier work
[8] = prevention groups, 30 mg/kg intragastric to the 14th day
[9] = prevention groups, 30 mg/kg intragastric to the 14th day, 10 animals
[10] = prevention groups, 60 mg/kg intragastric to the 14th day
[11] = prevention groups, 60 mg/kg intragastric to the 14th day, 10 animals
[12] = treatment groups, 30 mg/kg intragastric from the 8th to the 21th day
[13] = treatment groups, 30 mg/kg intragastric from the 8th to the 21th day, 18 animals
[14] = treatment groups, 60 mg/kg intragastric from the 8th to the 21th day
[15] = treatment groups, 60 mg/kg intragastric from the 8th to the 21th day, 18 animals

For CC[C@@H]1[C@H]2CCCCN3[C@H]2[C@H](C[C@H]3[C@@H]2C[C@H](C)C(=O)O2)[C@@H]2[C@H]1OC(=O)[C@H]2C [Compound I, Tuberostemonine], the Survival rate [1, 8] was 100%, the “Mortality (number of dead animals)” value [1, 9] was 0 and the Survival rate [1, 10] was 90%. The “Mortality (number of dead animals)” value [1, 11] was 1, the “protective effect on model mice (mortality), comparison among compounds” value ([1]; prevention groups, lower dose (30 mg/kg) better) was “more effective than compound VIII” and the Survival rate [1, 12] was 89%. For the same compound, the “Mortality (number of dead animals)” value [1, 13] was 2, the Survival rate [1, 14] was 83% and the “Mortality (number of dead animals)” value [1, 15] was 3. The “lung index (lung weight divided by mouse weight)” value [2] was “significantly decrease the lung index”, the “antitussive activities, comparison among stemona tuberosa alkaloids” value (“antitussive activities” below) (cough reflex pathway) was “weaker” and the “lung tissue inflammation scores (HE stained, grade 0-3)” value [3] was “significantly decrease the pulmonary inflammation”. For the same compound, the “pulmonary inflammation and injury, HE stained pathological changes” value [3] was “significantly alleviate the pulmonary inflammation”, the “collagen deposition (Masson staining, integrated optical density)” value [4] was “significantly decrease collagen deposition” and the “effect in decreasing the collagen deposition, comparison among compounds” value ([4]; in general, Masson staining) was “slightly better than that of compound VIII”. For the same compound, the “content of TGF-β1 in lung tissue (ELISA)” value (TGF-β1) was “effectively decrease the content of TGF-β1”, the “effect on content of TGF-β1, comparison among compounds” value (TGF-β1) was “slightly better than that of compound VII” and the “pulmonary inflammation, injury and fibrosis in HE and Masson stained pathological sections” value [5] was “recover to nearly normal structure”. The “content of hydroxyproline in lung tissue” value [6] was “effectively decrease the content of hydroxyproline”.

In the case of CC[C@@H]1[C@H]2CCCCN3[C@H]2[C@H](C[C@@H]3[C@@H]2C[C@H](C)C(=O)O2)[C@@H]2[C@H]1OC(=O)[C@H]2C [Compound II, Tuberostemonine A], the “pulmonary inflammation, injury and fibrosis in HE and Masson stained pathological sections” value [5] is reported as “recover to nearly normal structure”.

For CC[C@@H]1[C@@H]2CCCCN3[C@@H]2[C@@H](C[C@H]3[C@@H]2C[C@H](C)C(=O)O2)[C@H]2[C@@H]1OC(=O)[C@H]2C [Compound III, Tuberostemonine J], the antitussive effect [7] is given as “very good antitussive effect”, the “antitussive effect compared with codein” value [7] is given as “weaker antitussive effect than that of codein” and the “pulmonary inflammation, injury and fibrosis in HE and Masson stained pathological sections” value [5] is given as “recover to nearly normal structure”.

In the case of CC[C@@H]1[C@H]2CCCCN3[C@@H]2[C@@H](C[C@H]3[C@@H]2C[C@H](C)C(=O)O2)[C@H]2[C@@H]1OC(=O)[C@H]2C [Compound IV, Tuberostemonine H], the antitussive effect [7] is listed as “very good antitussive effect” and the “antitussive effect compared with codein” value [7] is listed as “weaker antitussive effect than that of codein”.

In the case of CC[C@@H]1[C@H]2CCCCN3CC[C@H]([C@@H]4[C@H]1OC(=O)[C@@H]4C)[C@@H]23 [Compound VIII, Sessilifoline B], the Survival rate [1, 8] is reported as 90%, the “Mortality (number of dead animals)” value [1, 9] is reported as 1 and the Survival rate [1, 10] is reported as 80%. For the same compound, the “Mortality (number of dead animals)” value [1, 11] was 2, the Survival rate [1, 12] was 83% and the “Mortality (number of dead animals)” value [1, 13] was 3. The Survival rate [1, 14] was 78%, the “Mortality (number of dead animals)” value [1, 15] was 4 and the “lung index (lung weight divided by mouse weight)” value [2] was “significantly decrease the lung index”. For the same compound, the “lung tissue inflammation scores (HE stained, grade 0-3)” value [3] was “significantly decrease the pulmonary inflammation”, the “pulmonary inflammation and injury, HE stained pathological changes” value [3] was “significantly alleviate the pulmonary inflammation” and the “collagen deposition (Masson staining, integrated optical density)” value [4] was “significantly decrease collagen deposition”. For the same compound, the “content of TGF-β1 in lung tissue (ELISA)” value (TGF-β1) was “effectively decrease the content of TGF-β1”, the “effect on content of TGF-β1, comparison among compounds” value (TGF-β1) was “slightly better than that of compound VII” and the “pulmonary inflammation, injury and fibrosis in HE and Masson stained pathological sections” value [5] was “recover to nearly normal structure”. For the same compound, the “content of hydroxyproline in lung tissue” value [6] was “effectively decrease the content of hydroxyproline”.

With CCN(CC)CCOCCOC(=O)C1(c2ccccc2)CCCC1 [Pentoxyverine, pentoxyverine, reference compound] the “pulmonary inflammation, injury and fibrosis in HE and Masson stained pathological sections” value [5] was “cannot decrease the degree of pulmonary injury and fibrosis” and the “content of hydroxyproline in lung tissue” value ([5]; alkaloids and pentoxyverine 30 mg/kg, pirfenidone 300 mg/kg, versus model group (FIG. 1A)) was “no significant difference”.

For C[C@@H]1C[C@]2(CCCCN3[C@H]2CC[C@H]3[C@@H]2C[C@H](C)C(=O)O2)OC1=O [croomine, reference compound], the “antitussive activities” value (cough reflex pathway) is listed as “similar”.

In the case of CC[C@@H]1[C@H]2CCCCN3CC[C@@H]([C@H]4[C@@H]1OC(=O)[C@H]4C)[C@@H]23 [isostenine, reference compound], the antitussive effect [7] is given as “very good antitussive effect”.

In the case of CC[C@H]1[C@H]2[C@@H](CCCN3[C@H]2CC[C@H]3[C@@H]2C[C@H](C)C(=O)O2)O[C@]12C=C(C)C(=O)O2 [stemoninine, reference compound], the “antitussive activities” value (cough reflex pathway) is listed as “similar”.
